From patent US20230151024A1, “STING AGONISTIC COMPOUND” (ONO PHARMACEUTICAL CO., LTD., priority 2020, published 2023)

What was measured:
[1] = Conversion of a prodrug to an active body thereof in mouse plasma; assay type: in vitro ADME; conditions: 1 μmol/L, 37° C. for 60 minutes, conversion to the compound in Example 3
Procedure: (§1) The solutions of the example compounds in Table 5 below (50 μmol/L, 50% acetonitrile with 5% DMSO) were added to plasma (245 μL), respectively, such that the final concentrations thereof become 1 μmol/L. After keeping them at 37° C. for 60 minutes, 40 μL of the reaction solutions were taken therefrom, and added to 200 μL of acetonitrile/ethanol (7:3) containing Candesartan (internal standard).
(§2) The concentration of the compound prepared in Example 3 in the plasma resulting from the above reaction was analyzed by LC-MS/MS according to the following method.
(§3) Prominence UFLCXR (Shimadzu Corporation), API5000 (AB Sciex)
(§4) The whole amount was transferred to a filter plate for protein removal and filtered by suction, and the filtrate thereof was diluted 2-fold with water. [LC column] Shim-pack XR-ODSII 2.0 mm ID x 75 mm (Shimadzu Corporation)
(§5) Column temperature: 40° C. Mobile phase: A: 0.2% formic acid in 5 mM ammonium acetate solution; and
(§6) Electrospray, positive mode, multiple reaction monitoring;
(§7) Compound prepared in Example 3: m/z353.0→m/z311.2, DP: 80, CE: 35; and Candesartan (internal standard): m/z309.1→m/z163.0, DP: 71, CE: 21.
(§8) A regression formula was calculated from the peak area ratio of the real sample and the standard sample for the calibration curve in the same matrix (peak area of the compound in Example 3/peak area of Candesartan), and the peak area ratio of the real sample was substituted into the regression formula to calculate the quantitative value. 60 minutes later, the concentration of the compound in Example 3 in the sample was compared, and the conversion rate (%) thereof was calculated using the following formula:
(§9) Conversion rate (%)=Concentration of the compound in Example 3 in the sample after 60 minutes (μmol/L)×100

[2] = Conversion of a prodrug to an active body thereof in human plasma; assay type: in vitro ADME; conditions: 1 μmol/L, 37° C. for 60 minutes, conversion to the compound in Example 3
Procedure: as §1, §2, §3, §4, §5, §6, §7, §8, §9

[3] = test system: BTK, KDR, each subtype of PKCα to t, each CDK of CDK2 to 9, FAK, TIE2, RAF1 and BRAF; assay: Evaluation of inhibitory activity against various kinases (mobility shift, LabChip); assay type: biochemical; conditions: 4 μmol/L test substance solution at 4 times the final concentration
Procedure: 4 μmol/L of the test substance solution (the compound in the present invention produced in Example 1) (at 4 times the final concentration) was prepared by dissolving it to the assay buffer (20 mmol/L HEPES, 0.01% Triton X-100, 1 mmol/L DTT, pH 7.5). 4 μmol/L of the substrate/ATP/metal solution (at 4 times the final concentration) was prepared by dissolving it to the kit buffer (20 mmol/L HEPES, 0.01% Triton X-100, 5 mmol/L DTT, pH 7.5). Various kinase solutions at twice the final concentration were prepared by dissolving them to the assay buffer. 5 μL of the test substance solution, 5 μL of the substrate/ATP/metal solution and 10 μL of the kinase solution were mixed in wells of a polypropylene 384-well plate, and the mixture thereof was reacted at room temperature for 1 to 5 hours. The reaction was stopped by adding 70 μL of the termination buffer (QuickScout Screening Assist MSA; Carna Biosciences). The substrate peptide and phosphorylated peptide in the reaction solution were separated and quantified by LabChip system (Perkin Elmer). The kinase reaction was evaluated based on the product ratio (P/(P+S)) calculated from the peak height (S) of the substrate peptide and the peak height (P) of the phosphorylated peptide. The various kinases used in this evaluation are as follows:
BTK, KDR, each subtype of PKCα to t, each CDK of CDK2 to 9, FAK, TIE2, RAF1 and BRAF.

[4] = biological target: T1, IDO1 (Homo sapiens, UniProt P14902); assay: Evaluation of IDO1 inhibitory activity (IDO1 Fluorogenic Inhibitor Screening Assay Kit); assay type: biochemical; conditions: compound solutions of 0.6, 2, 6, 20, 60 and 200 μmol/L added
T1 construct: purchased BPS Bioscience
T1 sequence (P14902 whole entry): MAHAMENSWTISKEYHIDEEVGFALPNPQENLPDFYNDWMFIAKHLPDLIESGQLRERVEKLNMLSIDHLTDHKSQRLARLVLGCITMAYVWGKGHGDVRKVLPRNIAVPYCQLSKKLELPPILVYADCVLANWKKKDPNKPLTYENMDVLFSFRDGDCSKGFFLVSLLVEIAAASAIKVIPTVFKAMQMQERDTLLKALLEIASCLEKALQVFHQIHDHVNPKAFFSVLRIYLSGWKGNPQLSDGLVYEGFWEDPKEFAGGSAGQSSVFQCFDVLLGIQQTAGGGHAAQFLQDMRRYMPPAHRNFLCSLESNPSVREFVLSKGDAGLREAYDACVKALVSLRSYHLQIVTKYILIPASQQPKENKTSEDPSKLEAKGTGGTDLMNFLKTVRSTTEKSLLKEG
Procedure: The evaluation of IDO1 inhibitory activity was carried out using the IDO1 Fluorogenic Inhibitor Screening Assay Kit (BPS Bioscience). Specifically, IDO1 Fluorogenic Reaction Solution was dissolved, of which 180 μL were added to each well. Then, 10 μL of the compounds at the respective concentrations of 0.6, 2, 6, 20, 60 and 200 μmol/L were added thereto. Further, after adding 10 μL of IDO1 His-Tag solution thereto, and the mixture thereof was incubated at room temperature for 1 hour, and then 20 μL of Fluorescence Solution was added thereto, and the mixture thereof was incubated at 37° C. for 4 hours. After standing them at room temperature for 10 minutes, the fluorescence was measured using a microplate reader (excitation: 400 nm, emission: 510 nm).

[5] = test system: THP1-Dual-STING KO cells; assay: Effects on THP1-Dual-STING KO cells (activity of the IRF pathway); assay type: cell-based; conditions: STING gene homozygous deficient THP1-Dual cells, about 24 hours
Procedure: STING gene homozygous deficient THP1-Dual cells (THP1-Dual-STING KO cells (Invivogen) were suspended in RPMI medium to prepare 2×10^6 cells/mL cell suspension. 50 μL of cell suspensions were dispensed into a 96-well plate, to which 50 μL of 6 to 20,000 nM compound solutions were further added, followed by incubation at 37° C. for about 24 hours. 10 μL of the cell suspensions were collected from each well, which were mixed with 50 μL of Quanti-luc (Invivogen), and then the activity of the IRF pathway was measured by detecting luminescence using a microplate reader.

[6] = test system: colon cancer cell line MC38; assay: Anti-tumor effect in a subcutaneously colon cancer cell line MC38 tumor-bearing mouse model (Example 17); assay type: in vivo, mice (C57/BL6); conditions: 3 mg/kg, administered 7 days after MC38 transplantation, measured until Day 26
Procedure: Colon cancer cell line MC38 derived from C57/BL6 mice were subcutaneously transplanted to right flank region of syngeneic mice (C57/BL6, female, 6 weeks old (Charles River Japan)) (herein, the day of transplantation was designated as Day 0) to prepare subcutaneously MC38 tumor-bearing mice. Seven days after transplantation, the subcutaneously MC38 tumor-bearing mice were grouped based on tumor volume, and the Vehicle group (n=8) and group to which the compound shown in Example 1 (3 mg/kg, n=6) was administered were set. The changes in tumor volume were continuously measured until 26 days after transplantation (Day 26). The tumor volume was calculated by the following formula:
[Tumor volume (mm^3)]=[major axis (mm)]×[minor axis (mm)]^2×0.5

Row | Structure (SMILES) | Plasma conversion rate Mouse [1] | Plasma conversion rate Human [2] | inhibitory activity against various kinases [3] | IDO1 inhibitory activity [4] | IRF activating effect [5] | tumor growth (tumor volume) [6]
1 | CC(=O)c1cc(-c2ncc(-c3cnn(COP(=O)(O)OCOC(=O)OC(C)C)c3)c3onc(N)c23)c(F)cc1N [Example 12(11), ((((4-(4-(5-acetyl-4-amino-2-fluorophenyl)-3-aminoisoxazolo[4,5-c]pyridin-7-yl)-1H-pyrazol-1-yl)methoxy)(hydroxy)phosphoryl)oxy)methyl isopropyl carbonate] | + (the conversion rate of each example compound in the table to the compound in Example 3 is less than 25%) | + (the conversion rate of each example compound in the table to the compound in Example 3 is less than 25%) |  |  |  | 
2 | COC(=O)n1cc(-c2cnc(-c3cc(C(C)=O)c(N)cc3F)c3c(N)noc23)cn1 [Example 12(10), methyl 4-(4-(5-acetyl-4-amino-2-fluorophenyl)-3-aminoisoxazolo[4,5-c]pyridin-7-yl)-1H-pyrazole-1-carboxylate] | + + + | + + + |  |  |  | 
3 | CC(=O)c1cc(-c2ncc(-c3cnn(COC(=O)N(C)c4ncccc4COP(=O)(O)O)c3)c3onc(N)c23)c(F)cc1N [Example 12(1), (4-(5-(5-acetyl-4-amino-2-fluorophenyl)-3-aminoisoxazolo[4,5-c]pyridin-7-yl)-1H-pyrazol-1-yl)methyl methyl(3-((phosphonooxy)methyl)pyridin-2-yl)carbamate] | + (the conversion rate of each example compound in the table to the compound in Example 3 is less than 25%) | + + |  |  |  | 
4 | CC(=O)c1cc(-c2ncc(-c3cnn(COP(=O)(O)O)c3)c3onc(N)c23)c(F)cc1N [Example 10(1), (4-(4-(5-acetyl-4-amino-2-fluorophenyl)-3-aminoisoxazolo[4,5-c]pyridin-7-yl)-1H-pyrazol-1-yl)methyl dihydrogen phosphate] | + + + | + + + |  |  |  | 
5 | CNCC(=O)OCc1cccnc1N(C)C(=O)OCn1cc(-c2cnc(-c3cc(C(C)=O)c(N)cc3F)c3c(N)noc23)cn1.Cl [Example 12(3), 2-((2-((((4-(4-(5-acetyl-4-amino-2-fluorophenyl)-3-aminoisoxazolo[4,5-c]pyridin-7-yl)-1H-pyrazol-1-yl)methoxy)carbonyl)(methyl)amino)pyridin-3-yl)methoxy)-N-methyl-2-oxoethane-1-ammonium chloride] | + + + | + + + |  |  |  | 
6 | COC(=O)c1cc(-c2ncc(-c3cn[nH]c3)c3onc(N)c23)c(F)cc1N [Example 1, methyl 2-amino-5-(3-amino-7-(1H-pyrazol-4-yl)isoxazolo[4,5-c]pyridin-4-yl)-4-fluorobenzoate] |  |  | no significantly inhibit activities | no IDO1 inhibitory activity | no IRF activating effect | almost completely suppressed the tumor growth
7 | CC(=O)c1cc(-c2ncc(-c3cnn(COC(=O)N4CCC(N5CCCCC5)CC4)c3)c3onc(N)c23)c(F)cc1N [Example 12, (4-(4-(5-acetyl-4-amino-2-fluorophenyl)-3-aminoisoxazolo[4,5-c]pyridin-7-yl)-1H-pyrazol-1-yl)methyl [1,4′-bipiperidine]-1′-carboxylate] | + (the conversion rate of each example compound in the table to the compound in Example 3 is less than 25%) | + (the conversion rate of each example compound in the table to the compound in Example 3 is less than 25%) |  |  |  | 
8 | CC(=O)c1cc(-c2ncc(-c3cnn(COC(=O)OCCN4CCOCC4)c3)c3onc(N)c23)c(F)cc1N.Cl [Example 12(4), (4-(4-(5-acetyl-4-amino-2-fluorophenyl)-3-aminoisoxazolo[4,5-c]pyridin-7-yl)-1H-pyrazol-1-yl)methyl (2-morpholinoethyl)carbonate hydrochloride] | + + + | + + + |  |  |  | 
9 | CC(=O)c1cc(-c2ncc(-c3cnn(COC(=O)OC[C@H]4OC(O)[C@H](O)[C@@H](O)[C@@H]4O)c3)c3onc(N)c23)c(F)cc1N (stereo partly drawn) [Example 12(5), (4-(4-(5-acetyl-4-amino-2-fluorophenyl)-3-aminoisoxazolo[4,5-c]pyridin-7-yl)-1H-pyrazol-1-yl)methyl (((2R,3S,4S,5R)-3,4,5,6-tetrahydroxytetrahydro-2H-pyran-2-yl)methyl) carbonate] | + + + | + + + |  |  |  | 
10 | CC(=O)c1cc(-c2ncc(-c3cnn(COC(=O)OC[C@H]4OC(O)[C@H](N)[C@@H](O)[C@@H]4O)c3)c3onc(N)c23)c(F)cc1N.Cl (stereo partly drawn) [Example 12(6), (4-(4-(5-acetyl-4-amino-2-fluorophenyl)-3-aminoisoxazolo[4,5-c]pyridin-7-yl)-1H-pyrazol-1-yl)methyl (((2R,3S,4R,5R)-5-amino-3,4,6-trihydroxytetrahydro-2H-pyran-2-yl)methyl) carbonate hydrochloride] | + + + | + + + |  |  |  | 
11 | CNCC(=O)OCc1cccnc1N(C)C(=O)OC(C)n1cc(-c2cnc(-c3cc(C(C)=O)c(N)cc3F)c3c(N)noc23)cn1 (centres unmarked) [Example 12(2), (2-(((1-(4-(4-(5-acetyl-4-amino-2-fluorophenyl)-3-aminoisoxazolo[4,5-c]pyridin-7-yl)-1H-pyrazol-1-yl)ethoxy)carbonyl)(methyl)amino)pyridin-3-yl)methyl methylglycinate] | + + + | + + + |  |  |  | 
12 | CC(=O)c1cc(-c2ncc(-c3cnn(C(=O)NCC(=O)O)c3)c3onc(N)c23)c(F)cc1N [Example 12(9), (4-(4-(5-acetyl-4-amino-2-fluorophenyl)-3-aminoisoxazolo[4,5-c]pyridin-7-yl)-1H-pyrazole-1-carbonyl)glycine] | + (the conversion rate of each example compound in the table to the compound in Example 3 is less than 25%) | + (the conversion rate of each example compound in the table to the compound in Example 3 is less than 25%) |  |  |  | 
